Source: patent US9499550B2 (BRISTOL-MYERS SQUIBB COMPANY, priority 2012, dated 2016)
Like-named read-outs stand apart in the source and are kept apart here.

How the values were obtained:
[1] = tested on: HCV genotype 1a (H77 strain) replicon in HUH-7 cells; assay: HCV replicon luciferase reporter assay, genotype 1a; format: cell-based; settings: 3 days incubation, read-out: LE_1a (EC50, range)
Summary of the method: (§1)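 Replicon inhibition for both genotypes was measured as Renilla luciferase signal (EnduRen, 7.5 μM final, 2 h) after 3-day, 37° C exposure of replicon-bearing HUH-7 cells in 4% FCS DMEM, 0.5% DMSO. The 1b construct carries S1179I; the 1a H77 construct carries P1496L and S2204I. Twenty-point, 3-fold dilutions were fitted four-parametrically for EC50, and CC50 was taken from multiplexed Cell Titer-Blue.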

[2] = tested on: HCV genotype 1b (Con1) replicon in HUH-7 cells; assay: HCV replicon luciferase reporter assay, genotype 1b; format: cell-based; settings: 3 days incubation, read-out: LE_1b (EC50, range)
Summary of the method: as §1

[3] = Hepatitis C virus, GETYPE1A, Huh-7, 72 h, HCV genotype 1a replicon luciferase
[4] = Hepatitis C virus, GETYPE1B, Huh-7, 72 h, HCV genotype 1b replicon luciferase
[5] = Hepatitis C virus, Huh-7, 72 h, HCV genotype 1a replicon luciferase assay, range class
[6] = Hepatitis C virus, Huh-7, 72 h, HCV genotype 1b replicon luciferase assay, range class

Row | Molecule | EC50 [1, 5] [nM] | EC50 [2, 6] [nM] | other results
1 | 3,3-difluoro-2-methylbutan-2-yl((2R,6S,7R,9R,13aS,14aR,16aS,Z)-7-ethyl-2-((2-(3-fluoro-4-isopropoxyphenyl)-7-methoxyquinolin-4-yl)oxy)-9-methyl-14a-(((1-methylcyclopropyl)sulfonyl)carbamoyl)-5,16-dioxo-1,2,3,5,6,7,8,9,10,11,13a,14,14a,15,16,16a-hexadecahydrocyclopropa[e]pyrrolo[1,2-a][1,4]diazacyclopentadecin-6-yl)carbamate [Compound 5550] |  |  | EC50 ([1]; HCV genotype 1a replicon luciferase): 0.51 to 1 nM; EC50 ([2]; HCV genotype 1b replicon luciferase): 1.01 to 5 nM
2 | COc1cnc(O[C@@H]2C[C@H]3C(=O)N[C@]4(C(=O)NS(=O)(=O)C5(F)CC5)C[C@H]4/C=C\CC[C@@H](C)C[C@@H](C)[C@H](NC(=O)OC(C)(C)C(F)(F)F)C(=O)N3C2)c2cc(F)ccc12 [Compound 4068] |  |  | EC50 [1, 3]: < 5.46 nM; EC50 [2, 4]: < 5.46 nM
3 | CC[C@@H]1C[C@@H](C)CC/C=C\[C@@H]2C[C@@]2(C(=O)NS(=O)(=O)C2(C)CC2)NC(=O)[C@@H]2C[C@@H](Oc3nccc4c(OC)cccc34)CN2C(=O)[C@H]1NC(=O)NC(C)(C)C [Compound 3033, (2R,6S,7R,9S,13aS,14aR,16aS,Z)-6-(3-(tert-butyl)ureido)-7-ethyl-2-((5-methoxyisoquinolin-1-yl)oxy)-9-methyl-N-((1-methylcyclopropyl)sulfonyl)-5,16-dioxo-1,2,3,5,6,7,8,9,10,11,13a,14,14a,15,16,16a-hexadecahydrocyclopropa[e]pyrrolo[1,2-a][1,4]diazacyclopentadecine-14a-carboxamide] | 4.82 to 103 | 4.82 to 103 | 
4 | COc1ccc2c(O[C@@H]3C[C@H]4C(=O)N[C@]5(C(=O)NS(=O)(=O)C6CC6)C[C@H]5/C=C\CC[C@@H](C)C[C@@H](C)[C@H](NC(=O)O[C@@H]5C[C@@H]6C[C@@H]6C5)C(=O)N4C3)nc(N3CCOCC3)cc2c1 [Compound 3105, (1R,3r,5S)-bicyclo[3.1.0]hexan-3-yl((2R,6S,7R,9R,13aS,14aR,16aS,Z)-14a-((cyclopropylsulfonyl)carbamoyl)-2-((6-methoxy-3-morpholinoisoquinolin-1-yl)oxy)-7,9-dimethyl-5,16-dioxo-1,2,3,5,6,7,8,9,10,11,13a,14,14a,15,16,16a-hexadecahydrocyclopropa[e]pyrrolo[1,2-a][1,4]diazacyclopentadecin-6-yl)carbamate] | < 5.46 | < 5.46 | 
5 | C[C@@H]1CC/C=C\[C@@H]2C[C@@]2(C(=O)NS(=O)(=O)C2CC2)NC(=O)[C@@H]2C[C@@H](Oc3ncc(OC4CC4)c4ccccc34)CN2C(=O)[C@@H](NC(=O)OC(C)(C)C(F)(F)F)[C@H](C)C1 [Compound 24, 1,1,1-trifluoro-2-methylpropan-2-yl((2R,6S,7R,9R,13aS,14aR,16aS,Z)-2-((4-cyclopropoxyisoquinolin-1-yl)oxy)-14a-((cyclopropylsulfonyl)carbamoyl)-7,9-dimethyl-5,16-dioxo-1,2,3,5,6,7,8,9,10,11,13a,14,14a,15,16,16a-hexadecahydrocyclopropa[e]pyrrolo[1,2-a][1,4]diazacyclopentadecin-6-yl)carbamate] | < 5.46 | < 5.46 | 
6 | COc1ccc2c(O[C@@H]3C[C@H]4C(=O)N[C@]5(C(=O)NS(=O)(=O)C6(C)CC6)C[C@H]5/C=C\CC[C@@H](C)C[C@@H](C)[C@H](NC(=O)OC(C)(C)C(F)(F)F)C(=O)N4C3)cc(-c3ccc(OC(C)C)c(F)c3)nc2c1 [Compound 4247] |  |  | EC50 [1, 3]: 1.01 to 5 nM; EC50 [2, 4]: 1.01 to 5 nM
7 | CCCOc1cc2c(Cl)cccc2c(O[C@@H]2C[C@H]3C(=O)N[C@]4(C(=O)NS(=O)(=O)C5CC5)C[C@H]4/C=C\CC[C@H](C)C[C@@H](C)[C@H](NC(=O)OC(C)(C)C)C(=O)N3C2)n1 [Compound 1069, tert-butyl ((2R,6S,7R,9S,13aS,14aR,16aS,Z)-2-((5-chloro-3-propoxyisoquinolin-1-yl)oxy)-14a-((cyclopropylsulfonyl)carbamoyl)-7,9-dimethyl-5,16-dioxo-1,2,3,5,6,7,8,9,10,11,13a,14,14a,15,16,16a-hexadecahydrocyclopropa[e]pyrrolo[1,2-a][1,4]diazacyclopentadecin-6-yl)carbamate] | < 5.46 | < 5.46 | 
8 | COc1ccc2c(O[C@@H]3C[C@H]4C(=O)N[C@]5(C(=O)NS(=O)(=O)C6(C)CC6)C[C@H]5/C=C\CC[C@H](C)C[C@@H](C)[C@H](NC(=O)OC(C)(C)C)C(=O)N4C3)nc(N3CCOCC3)cc2c1 [Compound 3088, tert-butyl ((2R,6S,7R,9S,13aS,14aR,16aS,Z)-2-((6-methoxy-3-morpholinoisoquinolin-1-yl)oxy)-7,9-dimethyl-14a-(((1-methylcyclopropyl)sulfonyl)carbamoyl)-5,16-dioxo-1,2,3,5,6,7,8,9,10,11,13a,14,14a,15,16,16a-hexadecahydrocyclopropa[e]pyrrolo[1,2-a][1,4]diazacyclopentadecin-6-yl)carbamate] | < 5.46 | < 5.46 | 
9 | CC[C@@H]1C[C@H](C)CC/C=C\[C@@H]2C[C@@]2(C(=O)NS(=O)(=O)C2CC2)NC(=O)[C@@H]2C[C@@H](Oc3nc4cc(OC)c(F)cc4nc3C(F)(F)F)CN2C(=O)[C@H]1NC(=O)OC(C)(C)C [Compound 4266, tert-butyl ((2R,6S,7R,9R,13aS,14aR,16aS,Z)-14a-((cyclopropylsulfonyl)carbamoyl)-7-ethyl-2-((6-fluoro-7-methoxy-3-(trifluoromethyl)quinoxalin-2-yl)oxy)-9-methyl-5,16-dioxo-1,2,3,5,6,7,8,9,10,11,13a,14,14a,15,16,16a-hexadecahydrocyclopropa[e]pyrrolo[1,2-a][1,4]diazacyclopentadecin-6-yl)carbamate] |  |  | EC50 ([1]; Hepatitis C virus, Huh-7, 72 h, HCV genotype 1a replicon luciferase): 1.01 to 5 nM; EC50 ([2]; Hepatitis C virus, Huh-7, 72 h, HCV genotype 1b replicon luciferase): 1.01 to 5 nM
10 | COc1ccc2c(O[C@@H]3C[C@H]4C(=O)N[C@]5(C(=O)NS(=O)(=O)C6(CF)CC6)C[C@H]5/C=C\CC[C@H](C)C[C@@H](C)[C@H](NC(=O)OC(C)(C)C(C)(F)F)C(=O)N4C3)ncc(C(F)(F)F)c2c1 [Compound 1166, 3,3-difluoro-2-methylbutan-2-yl((2R,6S,7R,9S,13aS,14aR,16aS,Z)-14a-(((1-(fluoromethyl)cyclopropyl)sulfonyl)carbamoyl)-2-((6-methoxy-4-(trifluoromethyl)isoquinolin-1-yl)oxy)-7,9-dimethyl-5,16-dioxo-1,2,3,5,6,7,8,9,10,11,13a,14,14a,15,16,16a-hexadecahydrocyclopropa[e]pyrrolo[1,2-a][1,4]diazacyclopentadecin-6-yl)carbamate] | 4.82 to 103 | 4.82 to 103 | 
11 | COc1ccc2c(O[C@@H]3C[C@H]4C(=O)N[C@]5(C(=O)NS(=O)(=O)C6(C)CC6)C[C@H]5/C=C\CC[C@@H](C)C[C@@H](C)[C@H](NC(=O)OC(C)(C)C)C(=O)N4C3)nc(-c3ccc(OC(C)C)c(F)c3)cc2c1 [Compound 3062, tert-butyl ((2R,6S,7R,9R,13aS,14aR,16aS,Z)-2-((3-(3-fluoro-4-isopropoxyphenyl)-6-methoxyisoquinolin-1-yl)oxy)-7,9-dimethyl-14a-(((1-methylcyclopropyl)sulfonyl)carbamoyl)-5,16-dioxo-1,2,3,5,6,7,8,9,10,11,13a,14,14a,15,16,16a-hexadecahydrocyclopropa[e]pyrrolo[1,2-a][1,4]diazacyclopentadecin-6-yl)carbamate] | < 5.46 | < 5.46 | 
